Measurements reported in EP0466251A1, “Elfamycin-resistant mutants” (priority 1990, dated 1992).

Experiments:
[1] = target: T1, wild-type S. ramocissimus EF-Tu (Streptomyces ramocissimus, UniProt P29542); assay: elfamycin binding visualized by non-denaturing PAGE; conditions: 25 µM aurodox, 15 minutes at 37°C; Western blotting detection
T1 construct: made in house; host or cells: E. coli JM101 (pUSrT1-1)
Description: (§1) Susceptibility of the isolated EF-Tu to elfamycin is tested in elfamycin binding studies (G. Chinali et al., Eur. J. Biochem. 75 (1977) 55-65,) and in studies on the inhibition of EF-Tu dependent peptide synthesis (C. Glöckner and H. Wolf, cited above). Still another direct elfamycin binding assay has been developed in which the capacity of the EF-Tu protein to bind elfamycins can be visualized by a change in EF-Tu protein migration in the presence of the elfamycin by non-denaturing PAGE (polyacrylamide gel electrophoresis). Upon elfamycin binding to EF-Tu.GDP, a ternary complex is formed which is more negatively charged than the binary EF-Tu.GDP complex (B. Kraal et al, 1989, in The Guanine-Nucleotide Binding Proteins, pp 121-129, Plenum Press, New York). Consequently elfamycin binding, using e.g. aurodox, to Escherichia coli wild-type EF-Tu increases the migration distance into a non-denaturing polyacrylamide gel. Both the methods of peptide synthesis inhibition and visualization of elfamycin binding are the preferred techniques to determine the effect of elfamycin binding on EF-Tu functioning. These susceptibility assays are important if increased elfamycin resistance of EF-Tu has to be established.
For direct visualization of the elfamycin binding capacity, the mutant proteins were expressed in E. coli JM101 essentially as described in Example 3. […]

[2] = target: T2, major EF-Tu species of S. ramocissimus strain R1V (Streptomyces ramocissimus, UniProt P29542, A379V); assay: direct elfamycin binding assay on S-100 extract; conditions: S-100 extract of strain R1V; 25 µM Aurodox
T2 construct: an S-100 extract was prepared from a culture of S. ramocissimus strain R1V; endogenous in cells; host or cells: S. ramocissimus strain R1V (chromosomal tuf1 replaced by the A378V allele)
Description: (§2) For direct visualization of the elfamycin binding capacity, the mutant proteins were expressed in E. coli JM101 essentially as described in Example 3. Subsequently, a GDP stabilized S-30, S-100, or purified SrEF-Tu sample was prepared, and incubated with 25 µM aurodox for 15 minutes at 37°C. These samples, and control samples without aurodox were then subjected to non-denaturing 10% polyacrylamide gels and electrophoresed. Detection of the SrEF-Tu species was performed by the Western blotting technique using SrEF-Tu antibodies (Example 1). […] This experiment thus established that elfamycin resistance is most likely the effect of a reduced binding of the elfamycin to the mutant SrEF-Tu proteins.
To establish that S. ramocissimus strain R1V actually expresses the mutated Srtuf1 gene as the main EF-Tu species, an S-100 extract was prepared from a culture of S. ramocissimus strain R1V essentially as described in Example 1. Subsequently this extract was subjected to the direct elfamycin binding assay outlined in Example 6.

SrEF-Tu A378T = target: T3, SrEF-Tu A378T (Streptomyces ramocissimus, UniProt P29542, A379T); assay: elfamycin binding visualized by non-denaturing PAGE; design: species or system S. ramocissimus; conditions: 25 µM aurodox, 15 minutes at 37°C; Western blotting detection
T3 construct: made in house; host or cells: E. coli JM101
Description: as §1, §2

SrEF-Tu A378V = target: T4, SrEF-Tu A378V (Streptomyces ramocissimus, UniProt P29542, A379V); assay: as above; design: species or system S. ramocissimus; conditions: 25 µM aurodox, 15 minutes at 37°C; Western blotting detection
T4 construct: made in house; host or cells: E. coli JM101
Description: as §1, §2

SrEF-Tu A378P = target: T5, SrEF-Tu A378P (Streptomyces ramocissimus, UniProt P29542, A379P); assay: as above; design: species or system S. ramocissimus; conditions: 25 µM aurodox, 15 minutes at 37°C; Western blotting detection
T5 construct: made in house; host or cells: E. coli JM101
Description: as §1, §2

SrEF-Tu A378F = target: T6, SrEF-Tu A378F (Streptomyces ramocissimus, UniProt P29542, A379F); assay: as above; design: species or system S. ramocissimus; conditions: 25 µM aurodox, 15 minutes at 37°C; Western blotting detection
T6 construct: made in house; host or cells: E. coli JM101
Description: as §1, §2

T6 sequence (P29542 whole entry A379F): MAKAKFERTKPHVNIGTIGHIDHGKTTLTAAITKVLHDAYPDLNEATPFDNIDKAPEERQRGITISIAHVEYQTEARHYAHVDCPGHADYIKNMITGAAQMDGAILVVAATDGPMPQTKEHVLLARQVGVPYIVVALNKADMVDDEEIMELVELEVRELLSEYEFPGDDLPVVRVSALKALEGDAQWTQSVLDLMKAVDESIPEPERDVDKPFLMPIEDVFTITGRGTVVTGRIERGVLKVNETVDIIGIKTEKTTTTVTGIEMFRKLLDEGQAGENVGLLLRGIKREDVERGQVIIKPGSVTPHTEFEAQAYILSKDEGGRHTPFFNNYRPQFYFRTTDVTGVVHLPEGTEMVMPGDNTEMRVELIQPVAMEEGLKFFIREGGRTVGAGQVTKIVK
T2 sequence (P29542 whole entry A379V): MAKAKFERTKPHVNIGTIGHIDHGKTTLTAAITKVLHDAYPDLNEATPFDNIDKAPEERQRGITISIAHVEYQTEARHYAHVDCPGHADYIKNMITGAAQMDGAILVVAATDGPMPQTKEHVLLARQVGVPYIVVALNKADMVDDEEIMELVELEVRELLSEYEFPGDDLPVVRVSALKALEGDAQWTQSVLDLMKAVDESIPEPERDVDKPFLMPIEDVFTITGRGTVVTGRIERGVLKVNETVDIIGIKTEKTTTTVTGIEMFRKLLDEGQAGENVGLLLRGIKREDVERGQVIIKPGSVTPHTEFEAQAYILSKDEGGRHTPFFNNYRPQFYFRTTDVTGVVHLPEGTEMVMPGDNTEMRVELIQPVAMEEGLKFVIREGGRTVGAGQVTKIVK
T4 sequence (P29542 whole entry A379V): as above
T3 sequence (P29542 whole entry A379T): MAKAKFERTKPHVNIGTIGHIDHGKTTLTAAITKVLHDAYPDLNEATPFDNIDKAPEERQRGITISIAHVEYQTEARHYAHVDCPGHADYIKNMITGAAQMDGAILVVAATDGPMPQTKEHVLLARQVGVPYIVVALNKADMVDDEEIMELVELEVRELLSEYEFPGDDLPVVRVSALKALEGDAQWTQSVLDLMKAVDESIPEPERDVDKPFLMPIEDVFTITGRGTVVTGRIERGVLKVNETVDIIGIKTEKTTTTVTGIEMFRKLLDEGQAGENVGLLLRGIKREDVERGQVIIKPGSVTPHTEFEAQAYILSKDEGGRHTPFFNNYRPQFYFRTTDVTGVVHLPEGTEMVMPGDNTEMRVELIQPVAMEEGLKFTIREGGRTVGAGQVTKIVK
T1 sequence (P29542 whole entry): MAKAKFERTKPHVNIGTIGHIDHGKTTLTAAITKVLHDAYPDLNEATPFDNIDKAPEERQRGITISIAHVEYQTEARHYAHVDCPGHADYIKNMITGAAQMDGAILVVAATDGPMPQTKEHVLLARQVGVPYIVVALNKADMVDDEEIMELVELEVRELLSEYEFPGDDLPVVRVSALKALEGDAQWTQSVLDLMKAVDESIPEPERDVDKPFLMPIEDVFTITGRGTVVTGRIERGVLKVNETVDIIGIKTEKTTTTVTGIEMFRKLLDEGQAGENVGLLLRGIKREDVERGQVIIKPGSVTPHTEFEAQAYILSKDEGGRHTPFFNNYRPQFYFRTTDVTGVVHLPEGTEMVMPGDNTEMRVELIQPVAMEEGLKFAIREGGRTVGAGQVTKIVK
T5 sequence (P29542 whole entry A379P): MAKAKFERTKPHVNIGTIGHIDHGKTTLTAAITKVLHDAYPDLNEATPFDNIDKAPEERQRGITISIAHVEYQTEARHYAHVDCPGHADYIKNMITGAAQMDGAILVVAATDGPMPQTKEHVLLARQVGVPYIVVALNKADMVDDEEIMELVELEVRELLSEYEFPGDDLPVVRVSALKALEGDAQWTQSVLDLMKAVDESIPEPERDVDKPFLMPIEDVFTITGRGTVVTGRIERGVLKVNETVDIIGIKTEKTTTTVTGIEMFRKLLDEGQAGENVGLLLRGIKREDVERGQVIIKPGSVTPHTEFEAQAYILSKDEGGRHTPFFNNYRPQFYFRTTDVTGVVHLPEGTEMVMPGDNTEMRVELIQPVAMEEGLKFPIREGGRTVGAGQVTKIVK

C/C=C\C=C\[C@@H]1O[C@](O)([C@H](CC)C(=O)NC/C=C/C=C(\C)[C@@H](OC)[C@@H](C)[C@@H]2O[C@H](/C=C/C=C/C=C(\C)C(=O)c3c(O)ccn(C)c3=O)[C@H](O)[C@@H]2O)[C@H](O)[C@H](O)C1(C)C [aurodox, N-Methylmocimycin]
elfamycin binding (migration in non-denaturing PAGE) [1]: appears to bind
elfamycin binding (migration in non-denaturing PAGE) [2]: unable to bind
elfamycin binding (migration in non-denaturing PAGE) (SrEF-Tu A378T): unaffected
elfamycin binding (migration in non-denaturing PAGE) (SrEF-Tu A378V): unaffected
elfamycin binding (migration in non-denaturing PAGE) (SrEF-Tu A378P): unaffected
elfamycin binding (migration in non-denaturing PAGE) (SrEF-Tu A378F): unaffected
